Reference: patent EP1714646A1, “Pharmaceutical composition containing bakuchiol for treating osteoporosis in women” (Sinphar Pharmaceutical Co., Ltd., priority 2005, dated 2006)

Experiments:
[1] = test system: osteoporosis caused by estrogen deficiency; assay: Ovariectomized rat osteoporosis model: bone histomorphometry and apparent bone density; assay type: in vivo, female Wistar rats
From the text: The purpose of this example is to show the potency of bakuchiol in treating osteoporosis, wherein ovary of a female rat is removed to stimulate osteoporosis caused by estrogen deficiency.
The female Wistar rats of 16 weeks old (unless specified in the other experiment description) were obtained from the stock reared by the Animal breeding center, National Scientific Council in Taipei. These rats were grouped by weights matched in order to distribute the physiological response variation from rats evenly into each group. These rats were grouping as follows: • Baseline group fed with no drug added food (n=8) • Sham operation group fed with no drug added food (Sham) (n=10) • Ovariectomy operation group fed with no drug added food (OVX) (n=8) • Ovariectomy operation group fed with Drug A (5 mg/kg) added food (OVX+A) (n=9) • Ovariectomy operation group fed with Drug B (15 mg/kg) added food (OVX+B) (n=9)
Ovariectomy (removal of ovaries) operation: Ovariectomy was induced using a protocol similar to that described by Wronski et al (Wronski et al, Endocrinology, 123 (2), 681-686 ([…]))
During the experiments, the rats were housed in hanging grid cages in groups of two at 21°C with a 12 hours dark cycle. Food (Rat-mouse diet III, adequate in 1 % of calcium content and 1.2 % of phosphate content, Purina, USA) was administered by paired feeding between the experimental and control groups. Pair-feeding was carried out by calculating the average amount of food intake in the Sham group. So give the same amount of food to the OVX , OVX+A (5 mg/kg), OVX+B (15 mg/kg) group animals the following day. These animals were fed with a period of two months except for the baseline group which were killed on the very day of doing ovariectomy or sham operation. Rats of OVX+A and OVX+B groups were fed with the usual food chuck but added certain amount of compound A and B in it respectively. Water was given ad libitum to all rats.
The test drug was weighted according to dose of 5 mg/kg and 15 mg/kg, and added into the ususal food chuck powder and mixed with 10% starch paste. After fully mixed, these chuck powder were made into mass manually and dried by air flow oven. The food with added drug to rats was performed by single blind method.
These labeling and bone histomorphometry assessment were done based on standard procedure in bone research (Lin et al, Calcif. Tissue Int., 67, 373-377 (2000)). […] Seven µm thick unstained sections were prepared for fluorescent microscopy and assessed with program Osteomeasure (3.0 version, Atlanta, USA). […]
The whole tibia and femur were stripped off attached muscles and ligaments after sacrifice. […] The weight of bone measured in the air was marked as W-air. […] The apparent bone density was calculated as [W-air/(W-air minus W-water)] […]

T47D = assay: Cytotoxicity assay (CCK-8), T47D; assay type: cell-based, human; details: T47D (estrogen receptor positive), 48 hours incubation
From the text: (§1) Materials: DMEM (medium), RPMI (medium), L-glutamine, penicillin, streptomycin and FBS (fetal bovine serum) were obtained from Gibco (NY, USA). Culture plasticware was purchased from Coming (MA, USA). […] All other chemicals used were of reagent grade and were purchased from Sigma or E. Merck (Germany).
(§2) Cell lines and cell cultures: The human breast cancer cell lines T47D and MDA-MB231 were obtained from American Type Culture Collection (ATCC). Of both cancer cells, T47D is estrogen receptor positive, and MDA-MB231 is estrogen receptor negative. Cells were cultured at 37°C in RPMI medium containing 10% charcoal-dextran stripped fetal bovine serum for T47D cells and in DMEM medium containing 10% charcoal-dextran stripped fetal bovine serum for MDA-MB231 cells with 5% CO2. The cell proliferation was determined by counting the viable cells with trypan blue exclusion.
(§3) Cytotoxicity assay: Dispense 198 µl of cell suspension (20,000 cells for T47D per well and 10,000 cell for MDA-MB231 per well) in a 96-well plate and pre-incubate the plate for 24 hours in an incubator at 37°C with humidified 5% CO2. […] After plate was incubated for 48 hours in the incubator, media were aspirated of and new media (100 µl) were added and incubated for more 1 hour. […] Measure the absorbance at 450 nm using a ELISA reader. […]

MDA-MB231 = assay: Cytotoxicity assay (CCK-8), MDA-MB231; assay type: cell-based, human; details: MDA-MB231 (estrogen receptor negative), 48 hours incubation
From the text: as §1, §2, §3

SMILES: C=C[C@@](C)(/C=C/c1ccc(O)cc1)CCC=C(C)C [Bakuchiol, bakuchiol]
- bone volume of proximal tibia ([1]; OVX+A (5 mg/kg) and OVX+B (15 mg/kg) in food, two months, vs OVX group, p < 0.001, Figure 1): increase
- erosion surface (ES/BS,%) of proximal tibia ([1]; OVX+A (5 mg/kg) and OVX+B (15 mg/kg) in food, two months, vs OVX group, p < 0.001, Figure 3): inhibition of bone erosion
- bone apparent density of tibia ([1]; OVX+A (5 mg/kg) and OVX+B (15 mg/kg) in food, two months, vs OVX group, p < 0.05, Figure 2): increase
- therapeutic effect on osteoporosis ([1]; ovariectomized female rat, low dose (5 mg/kg)): possess a therapeutic effect on osteoporosis by inhibiting the bone resorption
- 50% inhibition of cell growth concentrations of test compounds (IC50) (T47D): 5.00 μg/cc
- 50% inhibition of cell growth concentrations of test compounds (IC50) (MDA-MB231): 0.62 μg/cc
